ChEMBL document CHEMBL5113555, “Potent PROTACs Targeting EGFR Mutants in Drug Discovery” (ACS Med Chem Lett, 2022)

Tests used:
[1] = molecular target: Protein cereblon/Epidermal growth factor receptor (Homo sapiens, UniProt P00533+Q96SW2); assay: Protac activity at E3 ubiquitin ligase/EGFR Del19/[…]/C797S mutant assessed as E3 ubiquitin ligase mediated EGFR degradation in human NCI-H1975 cells expressing Del19/[…]/C797S mutant in clone 28 after 16 hrs by HTRF assay; type: cell-based
[2] = test system: Protein cereblon/Epidermal growth factor receptor (Homo sapiens), P00533+Q96SW2 [UNDEFINED MUTATION]; assay: Protac activity at E3 ubiquitin ligase/EGFR Del19/[…]/C797S mutant assessed as E3 ubiquitin ligase mediated EGFR degradation in human NCI-H1975 cells expressing Del19/[…]/C797S mutant in clone 28 after 16 hrs by HTRF assay relative to control; type: cell-based
Protein cereblon/Epidermal growth factor receptor (Homo sapiens), P00533+Q96SW2 [UNDEFINED MUTATION], sequence (P00533 whole entry, looked up, stated change not applied): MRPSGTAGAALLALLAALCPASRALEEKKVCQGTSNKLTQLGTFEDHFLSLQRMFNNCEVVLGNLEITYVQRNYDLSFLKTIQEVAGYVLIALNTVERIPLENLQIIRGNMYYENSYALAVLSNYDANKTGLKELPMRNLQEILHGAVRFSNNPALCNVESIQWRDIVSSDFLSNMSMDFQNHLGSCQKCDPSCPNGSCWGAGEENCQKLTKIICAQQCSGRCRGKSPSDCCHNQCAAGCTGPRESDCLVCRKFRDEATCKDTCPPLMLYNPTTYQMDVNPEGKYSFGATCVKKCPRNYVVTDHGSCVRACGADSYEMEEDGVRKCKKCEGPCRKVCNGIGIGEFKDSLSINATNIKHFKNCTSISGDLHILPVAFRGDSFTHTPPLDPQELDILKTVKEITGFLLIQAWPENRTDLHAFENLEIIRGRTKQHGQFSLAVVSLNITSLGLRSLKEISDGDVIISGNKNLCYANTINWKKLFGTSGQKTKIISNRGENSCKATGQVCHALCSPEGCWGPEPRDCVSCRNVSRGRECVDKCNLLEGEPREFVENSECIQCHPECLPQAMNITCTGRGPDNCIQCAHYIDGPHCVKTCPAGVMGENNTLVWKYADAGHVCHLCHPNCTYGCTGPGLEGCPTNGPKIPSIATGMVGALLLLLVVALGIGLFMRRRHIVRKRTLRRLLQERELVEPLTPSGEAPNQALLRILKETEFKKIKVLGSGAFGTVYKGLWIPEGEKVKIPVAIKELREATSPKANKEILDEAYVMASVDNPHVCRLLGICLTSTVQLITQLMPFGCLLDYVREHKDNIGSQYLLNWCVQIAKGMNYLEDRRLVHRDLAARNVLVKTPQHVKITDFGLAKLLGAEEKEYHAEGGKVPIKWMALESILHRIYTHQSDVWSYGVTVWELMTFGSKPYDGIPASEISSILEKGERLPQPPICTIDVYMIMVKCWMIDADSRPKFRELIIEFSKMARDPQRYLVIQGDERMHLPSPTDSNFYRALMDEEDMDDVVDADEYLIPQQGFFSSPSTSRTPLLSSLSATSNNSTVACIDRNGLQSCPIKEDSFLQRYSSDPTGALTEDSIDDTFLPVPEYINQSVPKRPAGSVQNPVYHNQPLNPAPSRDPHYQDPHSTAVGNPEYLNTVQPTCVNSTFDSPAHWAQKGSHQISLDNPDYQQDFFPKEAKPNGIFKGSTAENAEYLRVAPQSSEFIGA
Protein cereblon/Epidermal growth factor receptor (Homo sapiens), P00533+Q96SW2 [UNDEFINED MUTATION], sequence (Q96SW2 whole entry, looked up, stated change not applied): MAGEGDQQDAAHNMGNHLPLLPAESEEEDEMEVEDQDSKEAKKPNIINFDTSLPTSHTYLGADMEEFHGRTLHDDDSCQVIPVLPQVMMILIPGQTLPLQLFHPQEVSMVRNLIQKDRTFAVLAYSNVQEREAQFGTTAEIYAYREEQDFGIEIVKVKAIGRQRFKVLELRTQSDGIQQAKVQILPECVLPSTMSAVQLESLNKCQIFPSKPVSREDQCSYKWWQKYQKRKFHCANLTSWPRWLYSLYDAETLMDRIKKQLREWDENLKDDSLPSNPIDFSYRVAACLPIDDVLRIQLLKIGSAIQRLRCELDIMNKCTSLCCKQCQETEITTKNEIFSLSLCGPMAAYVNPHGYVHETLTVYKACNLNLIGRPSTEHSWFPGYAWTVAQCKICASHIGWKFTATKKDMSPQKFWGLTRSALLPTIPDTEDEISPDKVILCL

Protein cereblon/Epidermal growth factor receptor, sequence (P00533 whole entry, looked up, stated change not applied): as the sequence (P00533 whole entry, looked up, stated change not applied) above
Protein cereblon/Epidermal growth factor receptor, sequence (Q96SW2 whole entry, looked up, stated change not applied): as the sequence (Q96SW2 whole entry, looked up, stated change not applied) above

Row | SMILES | DC50 [1] | Emax [2]
1 | CCOc1cc(N2CCC(N3CCN(CCc4cc(F)c(F)c5c4oc(=O)n5C4CCC(=O)NC4=O)CC3)CC2)c(CC)cc1Nc1ncc(Br)c(Nc2cnc3ccccc3c2P(C)(C)=O)n1 (centres undefined) | 0.6 µM | 81%
2 | CCOc1cc(N2CCC(N3CCN(CCc4cccc5c4n(C)c(=O)n5C4CCC(=O)NC4=O)CC3)CC2)c(CC)cc1Nc1ncc(Br)c(Nc2cnc3ccccc3c2P(C)(C)=O)n1 (centres undefined) | 4.4 µM | 84%
3 | CCc1cc(Nc2ncc(Br)c(Nc3cnc4ccccc4c3P(C)(C)=O)n2)c(OC)cc1N1CCC(N2CCN(CCc3cccc4c3n(C3CC3)c(=O)n4C3CCC(=O)NC3=O)CC2)CC1 (centres undefined) | 0.7 µM | 85%
4 | CCc1cc(Nc2ncc(Br)c(Nc3cnc4ccccc4c3P(C)(C)=O)n2)c(OC)cc1N1CCC(N2CCN(CCc3ccc(F)c4c3n(C)c(=O)n4C3CCC(=O)NC3=O)CC2)CC1 (centres undefined) | 1 µM | 86%
5 | CCc1cc(Nc2ncc(Br)c(Nc3cnc4ccccc4c3P(C)(C)=O)n2)c(OC)cc1N1CCC(N2CCN(CCc3cccc4c3n(CC)c(=O)n4C3CCC(=O)NC3=O)CC2)CC1 (centres undefined) | 0.9 µM | 83%
6 | CCc1cc(Nc2ncc(Br)c(Nc3cnc4ccccc4c3P(C)(C)=O)n2)c(OC)cc1N1CCC(N2CCN(CCc3ccc4c(oc(=O)n4C4CCC(=O)NC4=O)c3F)CC2)CC1 (centres undefined) | 0.9 µM | 81%
7 | CCOc1cc(N2CCC(N3CCN(CCc4cccc5c4n(C)c(=O)n5C4CCC(=O)NC4=O)CC3)CC2)c(CC)cc1Nc1ncc(Br)c(Nc2cnc3cc(F)ccc3c2P(C)(C)=O)n1 (centres undefined) | 0.4 µM | 84%
